Earlier results on one compound are cited in patent publication US20210275440A1, “MICROBEAD COMPOSITIONS AND METHODS FOR DELIVERING AN AGENT” (THE UNIVERSITY OF MEMPHIS RESEARCH FOUNDATION, priority 2016, published 2021).

For the data set the following is noted: intra-articular administration.

As to `CN[C@H](CC(C)C)C(=O)N[C@H]1C(=O)N[C@@H](CC(N)=O)C(=O)N[C@H]2C(=O)N[C@H]3C(=O)N[C@H](C(=O)N[C@H](C(=O)O)c4cc(O)cc(O)c4-c4cc3ccc4O)[C@H](O)c3ccc(c(Cl)c3)Oc3cc2cc(c3O[C@@H]2O[C@H](CO)[C@@H](O)[C@H](O)[C@H]2O[C@H]2C[C@](C)(N)[C@H](O)[C@H](C)O2)Oc2ccc(cc2Cl)[C@H]1O` (atropisomer, axis not shown) [vancomycin], the half-life (in general, the time in which the quantity being followed falls by half) is on record as 3 h; the “time therapeutic levels in joint and serum were maintained” value is 24 h.
